The source of these data is US20210260010A1, “COMPOSITIONS AND METHODS FOR THE REDUCTION OR TREATMENT OF INFLAMMATION” (AXCELLA HEALTH INC., priority 2018, published 2021).

Common to all, as to format: cell-based
One assay relates to MCP1/CCL2. The experiment in a line: MCP1/CCL2 secretion by primary human hepatocytes exposed to free fatty acids and TNF-α (ELISA). As to conditions: for MCP1 expression relative to Control- Donor 1, Mean: donor 1 hepatocytes; for MCP1 expression relative to Control- Donor 1, Mean / MCP1 expression relative to Control- Donor 2, Mean: FFA + TNF-α, baseline subtracted; for MCP1 expression relative to Control- Donor 2, Mean: donor 2 hepatocytes. The protocol: Hepatocyte lipotoxicity appears to be a central driver of hepatic cellular injury via oxidative stress and endoplasmic reticulum (ER) stress. The ability of amino acids to influence steatosis (lipid accumulation) and inflammation in hepatocytes was assessed using human primary hepatocytes (Lonza, TRL).
Primary hepatocytes lot nos. from two healthy human donors were seeded on day 0 at density of 6e04 cells in 96 well optical microplates (Thermofisher) in hepatocyte plating media (William's E medium (Gibco) supplemented with 10% heat-inactivated FBS (Atlanta Bio), 2 mM Glutamax (Gibco) and 0.2% Primocin (InVivoGen) and incubated for 6 hours at 37° C., 5% CO2. After 6 hours, cells were washed twice and incubated overnight at 37° C., 5% CO2 with Hepatocytes defined medium (Corning) supplemented with 2 mM Glutamax (Gibco) and 1× Penicillin/Streptomycin. On day 1, cells were washed twice and incubated for 24 h in the hepatocyte culture media in the same conditions described above.
On day 2, cells were washed twice with DPBS 1× (Gibco) and maintained in amino acid-free WEM (US Biologicals) containing a defined custom amino acid concentration based on the mean physiological concentrations in blood. The values are published in the Human Metabolome Database (Wishart D S, Tzur D, Knox C, et al., HMDB: the Human Metabolome Database. Nucleic Acids Res. January 2007; 35(Database issue):D521-6. 17202168; which is hereby incorporated by reference in its entirety). This custom media is supplemented with 11 mM Glucose, 0.272 mM Sodium Pyruvate, and a dose curve of defined amino acid compositions (i.e., vehicle, LIVRQ+N-acetylcysteine, LIVRQ, RQ+N-acetylcysteine, N-acetylcysteine alone, LIV, or individually with L-Leucine, L-Isoleucine, L-Valine, L-Arginine, L-Glutamine, and L-Cysteine) at various ranges of concentrations. Cells were maintained in this defined media for 24 hours at 37° C., 5% CO2.
After pre-treatment, cells were exposed to free fatty acids (FFA) at 250 uM with a ratio of 2:1 (Oleate:Palmitate) supplemented with TNF-α (Thermofisher) at 1 ng/ml or vehicle. Cells were incubated with the FFAs mixture and the different amino acids combinations for 24 hours at 37° C., 5% CO2. After 24 hours incubation, media was removed for cytokine analysis and replaced by fresh media containing the same stimulus conditions and amino acid concentrations. Cells were incubated for an additional 48 hours for a total of 72 hours of FFA and TNFα stimulation.
Human CCL2 (MCP-1) was measured by ELISA (Human […] DuoSet ELISA, R&D Systems) at ⅕ or 1/10 dilution in 1× Reagent Diluent (Reagent Ancillary Kit 2, R&D Systems). Data were normalized to the specific per well cell density determined by nuclei count stained by Hoechst 3342 (Life technologies) in the fluorescence microscopy described below.

The test system of the next assay is MCP-1. The assay can be described thus: MCP-1 chemokine secretion by TNFα-stimulated primary human hepatic stellate cells (ELISA). The procedure: (§1) Primary human hepatic stellate cells were obtained from Samsara Sciences and grown in Complete HSC Medium to […] confluence in T75 or T150 flasks below passage 10 were seeded into 96-well plates and incubated for 6 hours at 37° C., 5% CO2 in a humidified incubator. After 6 hours, plates were removed from the incubator washed with DPBS and pretreated (±single amino acid dropout, ±supplemental amino acid dose; see experiment for medium composition) overnight, ˜14-15 hours. After overnight pretreatment, the medium was removed from the cells, and the same pretreatment medium, now supplemented with 3 ng/mL TNFα was applied. Plates were incubated for 12 hours at 37° C., 5% CO2. After 12 hour stimulus with TNFα, supernatant was removed and frozen at −80° C. in two separate aliquots. Plates were washed and incubated with CCK-8 viability reagent (Dojindo) for 1 hour. Viability was measured on the Synergy plate reader. Immediately, the medium was removed and the plates were fixed for immunofluorescence staining.
(§2) Human CCL2/MCP1 and Human IL-6 were measured by ELISA (Human […] DuoSet ELISA, R&D Systems; Human IL-6 DuoSet ELISA, R&D Systems) at ⅕ and 1/20 dilution in 1× Reagent Diluent (Reagent Ancillary Kit 2, R&D Systems). Data were normalized to the specific per well cell density determined by Hoechst stained nuclei count.
Tables 35-38 show per-cell normalized MCP-1 chemokine secretion in primary human hepatic stellate cells from two donors as a fold change from the plasma amino acid background. Statistical significance calculated by one-way ANOVA with Dunnett's multiple comparison test within each treatment group.

For a further assay, the system named is IL-6. The assay can be described thus: IL-6 cytokine secretion by TNFα-stimulated primary human hepatic stellate cells (ELISA). As to conditions: for Fold Change IL-6 Secretion Normalized Per Cell: Conc. 234 μM (plasma background, reference). The protocol:
as §1, §2
Tables 39-42 show per-cell normalized IL-6 cytokine secretion in primary human hepatic stellate cells from two donors as a fold change from the plasma amino acid background. Statistical significance calculated by one-way ANOVA with Dunnett's multiple comparison test within each treatment group.
For orientation: ELISA stands for enzyme-linked immunosorbent assay.

[1] abbreviates: Conc. 234 μM (baseline comparator).
Where [2] appears, read: primary human hepatic stellate cells, two donors, TNFα 3 ng/mL, 12 hours.

Each structure is given as a SMILES string.

As for `CC(C)[C@H](N)C(=O)O` [Valine, L-Valine], the “MCP1 expression relative to Control- Donor 1, Mean” value is −2.4E−15 in the assay on MCP1/CCL2 (setting [1]), 23.6867 in the assay on MCP1/CCL2 (Conc. 4684 μM), 77.73 in the assay on MCP1/CCL2 (Conc. 11710 μM) and 14.17 with MCP1/CCL2 (Conc. 23420 μM). Besides, the “MCP1 expression relative to Control- Donor 2, Mean” value with MCP1/CCL2 (setting [1]) is reported as −1.4E−14; in the assay on MCP1/CCL2 (Conc. 4684 μM) it was 10.79; with MCP1/CCL2 (Conc. 11710 μM) it was 38.25; with MCP1/CCL2 (Conc. 23420 μM) it was −30.7921. In addition, the “MCP1/CCL2 secretion (baseline subtracted)” value with MCP1/CCL2 (primary human hepatocytes from two healthy donors, FFA 250 uM + TNF-α 1 ng/ml) is “did not have an effect”. Moreover, the “Fold Change MCP1 Secretion Normalized Per Cell” value in the assay with MCP-1 (donor 3, Conc. 234 μM (plasma background, reference)) is listed as 1.0000; in the assay with MCP-1 (donor 3, Conc. 4684 μM), 1.0630; with MCP-1 (donor 3, Conc. 11710 μM) it was 1.0204; in the assay with MCP-1 (donor 3, Conc. 23420 μM), 1.2651; with MCP-1 (donor 4, Conc. 234 μM (plasma background, reference)), 1.0000. In the assay with MCP-1 (setting [2]), the “MCP-1 chemokine secretion, per-cell normalized, fold change from plasma amino acid background” value is on record as “no significant impact”. The “Fold Change IL-6 Secretion Normalized Per Cell” value with IL-6 (donor 1) and in the assay on IL-6 (donor 2) was 1.0000 in each case. Moreover, in the assay with IL-6 (setting [2]), the “IL-6 cytokine secretion, per-cell normalized, fold change from plasma amino acid background” value is on record as “no significant effect”.
